Activity calls are given as the source filed them. The calls are words filed in the database; no cut-off is given here.
Assays:
Rattus norvegicus [1] = test: Cardiotoxicity in Wistar rat assessed as effect on QTC interval time at 5 mg/kg, iv measured after 5 mins (reference value: 136.7 to 146.2 ms); assay type: toxicity, organism-based; settings: in vivo
Rattus norvegicus [2] = test: Cardiotoxicity in Wistar rat assessed as effect on PQ interval time at 5 mg/kg, iv measured after 1 min (reference value: 52 to 57 ms); assay type: toxicity, organism-based; settings: in vivo
Rattus norvegicus [3] = test: Cardiotoxicity in Wistar rat assessed as effect on PQ interval time at 5 mg/kg, iv measured after 5 mins (reference value: 52 to 57 ms); assay type: toxicity, organism-based; settings: in vivo
Rattus norvegicus [4] = test: Hypotensive activity in normotensive Wistar rat assessed as diastolic blood pressure at 5 mg/kg, iv measured after 5 mins (reference value: 86.5 to 119.4 mmHg); assay type: functional
[5] = biological target: T1, Adrenergic receptor alpha-1 (Rattus norvegicus, UniProt P15823+P23944+P43140); test: Displacement of [3H][…]prazosin from adrenergic alpha1 receptor in Wistar rat cortex incubated for 30 mins by microbeta liquid scintillation counting analysis
T1 sequence (P15823 whole entry): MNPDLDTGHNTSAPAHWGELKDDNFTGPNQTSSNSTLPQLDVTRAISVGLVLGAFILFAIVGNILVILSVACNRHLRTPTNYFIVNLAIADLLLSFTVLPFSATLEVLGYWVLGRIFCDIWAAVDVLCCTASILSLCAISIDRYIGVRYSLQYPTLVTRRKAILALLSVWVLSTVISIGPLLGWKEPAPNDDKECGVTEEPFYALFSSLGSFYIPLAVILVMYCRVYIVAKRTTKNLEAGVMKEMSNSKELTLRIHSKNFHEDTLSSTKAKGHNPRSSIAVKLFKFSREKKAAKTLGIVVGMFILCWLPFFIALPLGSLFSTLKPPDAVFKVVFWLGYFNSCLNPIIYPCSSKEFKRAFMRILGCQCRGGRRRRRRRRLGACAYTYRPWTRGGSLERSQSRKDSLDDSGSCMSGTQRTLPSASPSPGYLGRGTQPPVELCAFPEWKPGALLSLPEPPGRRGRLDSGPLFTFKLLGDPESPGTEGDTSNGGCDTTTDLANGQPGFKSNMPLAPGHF
T1 sequence (P23944 whole entry): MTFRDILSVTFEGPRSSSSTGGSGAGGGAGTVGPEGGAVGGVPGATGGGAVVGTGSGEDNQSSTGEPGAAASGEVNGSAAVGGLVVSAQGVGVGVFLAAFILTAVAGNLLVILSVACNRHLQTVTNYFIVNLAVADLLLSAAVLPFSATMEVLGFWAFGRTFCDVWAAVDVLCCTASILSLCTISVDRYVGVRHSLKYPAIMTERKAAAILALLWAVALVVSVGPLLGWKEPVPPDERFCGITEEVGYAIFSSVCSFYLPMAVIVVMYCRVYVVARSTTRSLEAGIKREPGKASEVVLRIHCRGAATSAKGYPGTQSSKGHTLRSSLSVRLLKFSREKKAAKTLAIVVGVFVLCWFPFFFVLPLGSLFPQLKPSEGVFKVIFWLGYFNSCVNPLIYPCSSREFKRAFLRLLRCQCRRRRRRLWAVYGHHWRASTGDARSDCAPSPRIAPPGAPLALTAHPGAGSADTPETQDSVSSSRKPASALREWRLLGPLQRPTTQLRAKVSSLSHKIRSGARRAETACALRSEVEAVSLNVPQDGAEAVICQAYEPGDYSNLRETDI
T1 sequence (P43140 whole entry): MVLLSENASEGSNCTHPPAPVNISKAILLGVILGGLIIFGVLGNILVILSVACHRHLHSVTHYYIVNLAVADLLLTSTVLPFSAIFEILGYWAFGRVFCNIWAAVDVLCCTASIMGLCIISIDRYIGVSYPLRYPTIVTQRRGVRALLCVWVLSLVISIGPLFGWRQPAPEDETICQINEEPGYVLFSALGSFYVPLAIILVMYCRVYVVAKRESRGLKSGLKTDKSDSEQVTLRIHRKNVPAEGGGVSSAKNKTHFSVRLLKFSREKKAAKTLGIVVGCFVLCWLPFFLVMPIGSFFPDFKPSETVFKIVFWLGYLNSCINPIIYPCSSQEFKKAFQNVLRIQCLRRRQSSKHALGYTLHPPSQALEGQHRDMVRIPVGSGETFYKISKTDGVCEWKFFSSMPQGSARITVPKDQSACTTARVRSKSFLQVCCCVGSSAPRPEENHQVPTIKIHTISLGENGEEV

Rattus norvegicus [6] = test: Hypotensive activity in normotensive Wistar rat assessed as systolic blood pressure at 5 mg/kg, iv measured after 60 mins (reference value: 119.2 to 148.6 mmHg); assay type: functional
Rattus norvegicus [7] = test: Cardiotoxicity in Wistar rat assessed as effect on heart rate at 5 mg/kg, iv measured after 15 mins (reference value: 323 to 374.5 bpm); assay type: toxicity, organism-based; settings: in vivo, 0.25 h
Rattus norvegicus [8] = test: Cardiotoxicity in Wistar rat assessed as effect on QT interval time at 5 mg/kg, iv measured after 1 min (reference value: 57.7 to 61 ms); assay type: toxicity, organism-based; settings: in vivo
Rattus norvegicus [9] = test: Hypotensive activity in normotensive Wistar rat assessed as systolic blood pressure at 5 mg/kg, iv measured after 5 mins (reference value: 119.2 to 148.6 mmHg); assay type: functional
Rattus norvegicus [10] = test: Cardiotoxicity in Wistar rat assessed as effect on heart rate at 5 mg/kg, iv measured after 1 min (reference value: 323 to 374.5 bpm); assay type: toxicity, organism-based; settings: in vivo
Rattus norvegicus [11] = test: Cardiotoxicity in Wistar rat assessed as effect on PQ interval time at 5 mg/kg, iv measured after 15 mins (reference value: 52 to 57 ms); assay type: toxicity, organism-based; settings: in vivo, 0.25 h
Rattus norvegicus [12] = test: Hypotensive activity in normotensive Wistar rat assessed as systolic blood pressure at 5 mg/kg, iv measured after 10 mins (reference value: 119.2 to 148.6 mmHg); assay type: functional
Rattus norvegicus [13] = test: Cardiotoxicity in Wistar rat assessed as effect on QRS interval time at 5 mg/kg, iv measured after 5 mins (reference value: 16.7 to 20.7 ms); assay type: toxicity, organism-based; settings: in vivo
Rattus norvegicus [14] = test: Cardiotoxicity in Wistar rat assessed as effect on heart rate at 5 mg/kg, iv measured after 5 mins (reference value: 323 to 374.5 bpm); assay type: toxicity, organism-based; settings: in vivo
Rattus norvegicus [15] = test: Cardiotoxicity in Wistar rat assessed as effect on QRS interval time at 5 mg/kg, iv measured after 1 min (reference value: 16.7 to 20.7 ms); assay type: toxicity, organism-based; settings: in vivo
[16] = biological target: Adrenergic receptor alpha-2 (Rattus norvegicus) (UniProt P22086+P19328+P22909); test: Displacement of [3H]-clonidine from adrenergic alpha2 receptor in Wistar rat cortex at 10^-5 M incubated for 25 mins by microbeta liquid scintillation counting analysis
Rattus norvegicus [17] = test: Cardiotoxicity in Wistar rat assessed as effect on QTC interval time at 5 mg/kg, iv measured after 15 mins (reference value: 136.7 to 146.2 ms); assay type: toxicity, organism-based; settings: in vivo, 0.25 h
Rattus norvegicus [18] = test: Hypotensive activity in normotensive Wistar rat assessed as systolic blood pressure at 5 mg/kg, iv measured after 30 mins (reference value: 119.2 to 148.6 mmHg); assay type: functional
Blood = test: Anti-aggregative activity in Wistar rat whole blood assessed as inhibition of collagen-induced aggregation preincubated for 3 mins followed by collagen induction measured for 6 mins; assay type: functional, tissue-based

Structure (SMILES)	Time (Rattus norvegicus [1]) [ms]	Time (Rattus norvegicus [2]) [ms]	Time (Rattus norvegicus [3]) [ms]	Activity (Rattus norvegicus [4]) [mmHg]	Activity (Rattus norvegicus [6]) [mmHg]	Activity (Rattus norvegicus [7]) [bpm]	Time (Rattus norvegicus [8]) [ms]	Activity (Rattus norvegicus [9]) [mmHg]	Activity (Rattus norvegicus [10]) [bpm]	Time (Rattus norvegicus [11]) [ms]	Activity (Rattus norvegicus [12]) [mmHg]	Time (Rattus norvegicus [13]) [ms]	Activity (Rattus norvegicus [14]) [bpm]	Time (Rattus norvegicus [15]) [ms]	Activity [16]	Time (Rattus norvegicus [17]) [ms]	Activity (Rattus norvegicus [18]) [mmHg]	IC50 [5] [µM]	IC50 (Blood) [µM]	inhibition (Blood)	also measured
COc1ccc(CCNCC(O)COc2cccc3c(=O)c4ccccc4oc23)cc1OC.Cl (racemic)	138.4	62.7	58	101.4	129.8	265.7	61.3	135.4	262.7	59.3	135.6	22.7	254.7	22.8	inactive	132.7	128	–	–	–	Ki [5]: 0.274 µM
Cl.O=c1c2ccccc2oc2cc(OCC(O)CN3CCN(c4ccccn4)CC3)ccc12 (racemic)	133.3	55.3	54.7	81	102.5	295.3	59	114.7	340.7	56	110.3	20	313	18.7	inactive	133.9	108.7	0.3556	77	Dose-dependent effect	–
COc1ccccc1OCCNCC(O)COc1cccc2c(=O)c3ccccc3oc12.Cl (racemic)	148.3	56	58	89.7	106.2	308.7	70	121.6	307	57.3	106.5	19.3	296	19	inactive	131.1	94.5	0.1095	49.5	Dose-dependent effect	Ki [5]: 0.8755 µM
Cl.O=c1c2ccccc2oc2c(OCC(O)CN3CCN(c4ccccn4)CC3)cccc12 (racemic)	144.8	58.2	58	110.8	126.4	343	58.7	136.8	368.2	59	131.4	18	356	18.5	inactive	144	126.6	0.171	64.1	Dose-dependent effect	–
COc1ccccc1CCNCC(O)COc1cccc2c(=O)c3ccccc3oc12.Cl (racemic)	148.2	52	52.5	108.6	117	390.5	60.5	146.2	356	51	133.4	19	336	18	inactive	148.5	126	0.3498	33.4	Dose-dependent effect	Ki [5]: 4.676 µM
CC(C)(C)NCC(O)COc1cccc2c(=O)c3ccccc3oc12.Cl (racemic)	–	–	–	–	–	–	–	–	–	–	–	–	–	–	inactive	–	–	–	33	Dose-dependent effect	Ki [5]: 0.814 µM
COc1ccccc1CNCC(O)COc1cccc2c(=O)c3ccccc3oc12.Cl (racemic)	129.8	60.7	63.3	107.2	125.3	265	65.5	149.3	246	57.7	147.7	22.7	243.7	22	inactive	139.3	126	1.87	86.8	Dose-dependent effect	–
